Data on two compounds can be found in patent US20150030540A1 (Eli Lilly and Company, priority 2008, published 2015).

Data set [1] concerns the target T1, MAO-A (Homo sapiens, UniProt P21397).
T1 sequence (P21397 1-527): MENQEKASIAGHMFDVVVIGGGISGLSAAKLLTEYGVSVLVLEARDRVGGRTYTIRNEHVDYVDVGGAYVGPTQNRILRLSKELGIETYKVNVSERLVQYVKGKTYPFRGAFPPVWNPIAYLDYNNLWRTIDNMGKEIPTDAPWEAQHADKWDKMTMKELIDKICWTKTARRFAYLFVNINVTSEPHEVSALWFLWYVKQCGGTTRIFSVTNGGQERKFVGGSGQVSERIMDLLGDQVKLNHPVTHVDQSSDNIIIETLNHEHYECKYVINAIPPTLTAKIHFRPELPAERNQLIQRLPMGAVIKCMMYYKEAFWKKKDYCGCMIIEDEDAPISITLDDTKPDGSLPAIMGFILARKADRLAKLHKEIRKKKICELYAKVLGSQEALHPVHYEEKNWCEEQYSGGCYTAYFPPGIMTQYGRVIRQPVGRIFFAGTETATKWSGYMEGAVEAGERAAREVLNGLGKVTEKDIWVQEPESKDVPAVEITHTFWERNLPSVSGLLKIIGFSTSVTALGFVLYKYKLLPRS
The experiment in a line: MAO inhibition, MAO-A. Type of data set: biochemical.

Data set [2] deals with T2, MAO-B (Homo sapiens, UniProt P27338).
T2 sequence (P27338 1-520): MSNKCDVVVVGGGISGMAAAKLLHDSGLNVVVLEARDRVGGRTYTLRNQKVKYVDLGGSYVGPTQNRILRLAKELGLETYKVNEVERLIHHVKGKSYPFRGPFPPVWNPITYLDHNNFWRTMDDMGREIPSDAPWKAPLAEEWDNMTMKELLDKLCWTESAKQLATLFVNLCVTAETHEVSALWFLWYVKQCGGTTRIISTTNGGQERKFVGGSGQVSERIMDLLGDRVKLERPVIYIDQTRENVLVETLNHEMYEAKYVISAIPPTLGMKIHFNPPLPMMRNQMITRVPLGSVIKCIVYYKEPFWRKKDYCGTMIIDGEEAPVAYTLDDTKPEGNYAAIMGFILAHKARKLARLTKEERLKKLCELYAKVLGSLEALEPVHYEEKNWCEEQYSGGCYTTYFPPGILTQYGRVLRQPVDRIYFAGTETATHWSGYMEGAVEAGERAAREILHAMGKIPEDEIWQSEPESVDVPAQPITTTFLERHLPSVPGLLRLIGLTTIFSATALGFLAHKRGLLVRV
As to the kind of experiment: MAO inhibition, MAO-B. The class given is biochemical.

Data set [3] concerns tau/Ab. The experiment in a line: selectivity (tau/Ab). Type of data set: binding. The source says: (§1) Furthermore, the selectivity can be evaluated in brains containing only Aβ plaques/no tau aggregates, Aβ plaques/and tau aggregates, and control brains. Unfortunately, there are no AD brains with only tau and no Aβ present. By testing radiolabeled tracers in these brain sections, one can more quantitative evaluate the relative binding strength (signal strength) and selectivity of various test compounds as they all contain the same radioactive tracer. For examples, if a test tracer binds only to tau, and not amyloid, it should show no signal in the Aβ plaques only brain sections. If a compound binds only to amyloid, it should show uptake in both types of brains. The difficulty of identifying and further quantifying selective compounds lies in the relative abundance of amyloid vs. tau, which is difficult to measure.

Data set [4] can be described thus: Brain uptake in rats and mice. The class given is in vivo.
Data set [5] is described as follows: GM Intensity (comp. with W372). To be noted: compared with W372. The class given is binding.
Data set [6] is described as follows: background in normal brain. Type of data set: binding.
Text: as §1

In data set [7] the test system is CNS selectivity panel. As to the kind of experiment: CNS selectivity panel (hits). Type of data set: binding.
In data set [8] the target is Dopamine transp. (Homo sapiens, UniProt Q01959). The experiment in a line: CNS selectivity panel: Dopamine transp. The class given is binding. To be noted: 1 uM.
Dopamine transp., sequence (Q01959 whole entry): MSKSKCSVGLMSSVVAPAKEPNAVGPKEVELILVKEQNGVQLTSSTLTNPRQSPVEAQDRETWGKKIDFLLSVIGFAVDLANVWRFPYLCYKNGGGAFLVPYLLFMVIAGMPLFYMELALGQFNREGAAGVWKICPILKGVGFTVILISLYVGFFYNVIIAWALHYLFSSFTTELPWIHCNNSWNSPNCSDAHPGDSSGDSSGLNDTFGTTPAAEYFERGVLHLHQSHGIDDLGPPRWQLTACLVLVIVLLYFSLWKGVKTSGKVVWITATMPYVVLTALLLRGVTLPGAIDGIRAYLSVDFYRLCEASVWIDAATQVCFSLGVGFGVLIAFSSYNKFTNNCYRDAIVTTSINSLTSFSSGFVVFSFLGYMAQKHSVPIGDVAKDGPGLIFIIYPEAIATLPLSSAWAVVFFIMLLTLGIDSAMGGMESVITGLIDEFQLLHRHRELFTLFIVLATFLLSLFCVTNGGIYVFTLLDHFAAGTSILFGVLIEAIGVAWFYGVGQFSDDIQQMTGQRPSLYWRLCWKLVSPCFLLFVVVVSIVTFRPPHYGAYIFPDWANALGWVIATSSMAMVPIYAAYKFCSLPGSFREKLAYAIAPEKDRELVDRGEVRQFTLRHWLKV
Data set [9] has as its system Monoamine transp. As to the kind of experiment: CNS selectivity panel: Monoamine transp. Particulars: 1 uM. Type of data set: binding.
For data set [10], the system named is human hepatocytes. The experiment in a line: Metabolism in human hepatocytes. Type of data set: in vitro ADME.
Data set [11] deals with Norepinephrine transp. (Homo sapiens, UniProt P23975). As to the kind of experiment: CNS selectivity panel: Norepinephrine transp. Type of data set: binding. Particulars: 1 uM.
Norepinephrine transp., sequence (P23975 whole entry): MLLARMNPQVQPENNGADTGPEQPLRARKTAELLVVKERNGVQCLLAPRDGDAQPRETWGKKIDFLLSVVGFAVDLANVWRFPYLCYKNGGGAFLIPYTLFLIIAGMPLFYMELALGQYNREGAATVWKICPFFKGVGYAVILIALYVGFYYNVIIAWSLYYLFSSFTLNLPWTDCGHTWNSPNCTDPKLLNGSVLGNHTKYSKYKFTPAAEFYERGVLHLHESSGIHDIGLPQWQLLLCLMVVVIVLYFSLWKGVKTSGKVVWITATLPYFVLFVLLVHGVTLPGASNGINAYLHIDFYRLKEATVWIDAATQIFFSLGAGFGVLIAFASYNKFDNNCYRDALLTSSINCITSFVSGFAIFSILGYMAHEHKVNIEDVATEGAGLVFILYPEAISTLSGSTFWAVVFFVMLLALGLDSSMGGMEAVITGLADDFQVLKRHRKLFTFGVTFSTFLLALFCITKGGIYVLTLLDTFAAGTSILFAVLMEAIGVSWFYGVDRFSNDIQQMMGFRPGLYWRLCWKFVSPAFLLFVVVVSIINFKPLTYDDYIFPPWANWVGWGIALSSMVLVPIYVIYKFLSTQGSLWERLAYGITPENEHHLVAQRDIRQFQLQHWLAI
In data set [12] the test system is Glutamate, NMDA. The experiment in a line: CNS selectivity panel: Glutamate, NMDA. Type of data set: binding. Particulars: 1 uM.
The target in data set [13] is T3, Serotonin 5-HT2c (Homo sapiens, UniProt P28335).
T3 sequence (P28335 33-458): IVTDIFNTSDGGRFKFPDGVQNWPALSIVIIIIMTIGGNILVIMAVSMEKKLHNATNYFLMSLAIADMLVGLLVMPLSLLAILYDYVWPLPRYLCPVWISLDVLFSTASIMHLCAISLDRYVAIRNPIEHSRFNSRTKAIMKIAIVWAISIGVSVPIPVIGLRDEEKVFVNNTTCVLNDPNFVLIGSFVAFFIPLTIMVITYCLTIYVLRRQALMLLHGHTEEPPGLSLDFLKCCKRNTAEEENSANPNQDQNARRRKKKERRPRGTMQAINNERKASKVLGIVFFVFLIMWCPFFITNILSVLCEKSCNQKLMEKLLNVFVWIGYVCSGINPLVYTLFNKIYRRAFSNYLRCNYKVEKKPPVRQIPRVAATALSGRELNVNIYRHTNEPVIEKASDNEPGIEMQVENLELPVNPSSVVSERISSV
As to the kind of experiment: CNS selectivity panel: Serotonin 5-HT2c. Particulars: 1 uM. The class given is binding.

The target in data set [14] is T4, tau (Homo sapiens, UniProt P10636).
T4 construct: Native forms of tau (various isoforms, hyperphosphorylated) and amyloid aggregates are present in brain sections and therefore preferred for compound testing
T4 sequence (P10636 623-758 limits assumed): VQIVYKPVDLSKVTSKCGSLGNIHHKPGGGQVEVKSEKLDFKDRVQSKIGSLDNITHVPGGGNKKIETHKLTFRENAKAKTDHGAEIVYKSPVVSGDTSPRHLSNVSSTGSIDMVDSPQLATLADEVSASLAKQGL
As to the kind of experiment: KD (tau) binding. To be noted: FIG. 2 legend, [18F] tracer; read-out: KD.
Text: (§2) When injected intravenously into mice, the Carbazole based compounds; in particular T807, T805 and T794 have shown excellent brain uptake. These compounds also display high binding affinity to tau fibrils. […] In neuropathological staining, compounds of the present invention stained amyloid plaques and/or tau aggregates.
as §1

Data set [15] is described as follows: Brain uptake after intravenous injection into mice. The class given is in vivo. To be noted: injected intravenously into mice.
Text: as §2

For data set [16], the target named is AchE (Homo sapiens, UniProt P22303). The experiment in a line: AchE activity (IC50). Type of data set: biochemical.
AchE, sequence (P22303 32-614): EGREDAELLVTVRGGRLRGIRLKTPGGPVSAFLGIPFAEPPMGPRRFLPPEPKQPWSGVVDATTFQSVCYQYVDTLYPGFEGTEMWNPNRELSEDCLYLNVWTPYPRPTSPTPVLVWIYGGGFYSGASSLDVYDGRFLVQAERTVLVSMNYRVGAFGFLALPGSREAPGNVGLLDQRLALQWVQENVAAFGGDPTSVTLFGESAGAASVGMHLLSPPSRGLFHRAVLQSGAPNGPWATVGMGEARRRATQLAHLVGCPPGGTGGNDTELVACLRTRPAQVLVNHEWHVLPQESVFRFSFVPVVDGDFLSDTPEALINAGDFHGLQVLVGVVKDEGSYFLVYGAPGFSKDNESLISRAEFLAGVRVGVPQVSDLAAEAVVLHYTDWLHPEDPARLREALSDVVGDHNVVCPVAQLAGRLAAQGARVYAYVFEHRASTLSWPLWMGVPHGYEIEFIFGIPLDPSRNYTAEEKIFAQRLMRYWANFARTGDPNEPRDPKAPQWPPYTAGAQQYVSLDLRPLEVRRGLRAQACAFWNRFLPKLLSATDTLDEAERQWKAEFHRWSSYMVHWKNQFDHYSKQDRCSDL
The subject of data set [17] is tau/amyloid. As to the kind of experiment: Tx/tau/amyloid correlation. Type of data set: binding.

pIC50, pKd: −log10 of the molar value.

Usually inhibition stands for the change of the read-out against control, counted positive when it falls. Read a low inhibition as a weak effect. Turning to `Cc1cnc2c(c1)[nH]c1cc(OCCF)ccc12` [T703, 7-(2-fluoroethoxy)-3-methyl-5H-pyrido[3,2-b]indole], the inhibition at 1 µM came to 16% in data set [1] and 0% in data set [2]. Also, the “selectivity (tau/Ab)” value in data set [3] came out at 16x. Further, the Brain uptake result in data set [4] is recorded as “Yes”. The “GM Intensity (comp. with W372)” value in data set [5] is listed as 6%. Moreover, the “background (normal brain 32566) PSL/mm2” value in data set [6] was determined as 15 PSL/mm2. Besides, in data set [7], the “CNS selectivity panel (targets named)” value is given as “NET, σl”.

By pKd is commonly meant the negative decadic logarithm of the Kd, by convention in mol/L. In general, pIC50 refers to the IC50 on a negative log10 scale, so that one unit is a factor of ten. Read a low pIC50 as a large IC50. On to `FCCCc1ccc2c(c1)[nH]c1ccncc12` [T794, 7-(3-Fluoropropyl)-5H-pyrido[4,3-b]indole], for which, in [8], the “CNS selectivity panel: Dopamine transp.” value is given as “transp.(34%)”. The inhibition at 1 µM in data set [1] came to 19%; in data set [2], 0%. Also, the “CNS selectivity panel: Monoamine transp.” value in data set [9] was “transp. (41%)”. Moreover, in data set [3], the “selectivity (tau/Ab)” value is listed as 17x. The “human hepatocytes (metabolic stability)” value in data set [10] is on record as “stable”. For the same compound, the Brain uptake result in [4] is “yes (4 rats, 4 mice)”; in data set [15] it was “excellent”. Further, in data set [11], the “CNS selectivity panel: Norepinephrine transp.” value is recorded as “transp.(49%)”. The “CNS selectivity panel: Glutamate, NMDA” value in data set [12] was “(44%) Monoamine”. Moreover, in data set [13], the “CNS selectivity panel: Serotonin 5-HT2c” value is “(33%)”. The negative-log Kd (pKd) in data set [14] was 7.52. Further, the “GM Intensity (comp. with W372)” value in data set [5] came out at 14%. The “background (normal brain 32566) PSL/mm2” value in [6] came out at 97 PSL/mm2. In data set [16], this compound gave a pIC50 of 5.30. Moreover, in data set [17], the Tx/tau/amyloid correlation entry was “yes”.
